# According to patent US20210364497A1, “IFN-beta Reporter System for Primary Cells” (UNIVERSITY OF MIAMI, priority 2018, published 2021):
# Test system: Human IFNβ promoter
# Assay: GLuc/SEAP dual reporter assay of the IFNβ promoter in hTERT-pIFNβ-GLuc cells
# Assay type: cell-based
# Details: FIG. 3B; hTERT-pIFNB-Gluc cells treated, 3 μg/ml, 24 hours
# Description: Human IFNβ promoter (sequence in FIG. 1) was cloned into Lentiviral vector pEZX-LvPG04 at GeneCopoeia. Lentiviral plasmid was co-transfected with LentiViral Package System (LENT-PACT™) into 293T cells using Lipofectamine 2000. 293T medium containing Lentiviral particles was collected 48 hours post transfection, filtered through 0.2 μM filter, and transduced to pre-seeded hTERT cells in the presence of 10 μg/ml polybrene. Transduction was repeated twice in 2 consecutive days. 48 hours after the last transduction, hTERT cells were selected by 2 μg/ml puromycin for 4 weeks. Single colonies of transduced hTERT cells were puromycin selected, and expanded for IENβ promoter-luciferase assay validation.
# To test the establishment of GLuc/SEAP-ρIENs1 reporter system, hTERT clones were mock treated (lipo) or transfected with synthetic double-stranded DNA (dsDNA). hTERT-ρIENβ-GLuc cells were transfected with synthetic 90-mer double-stranded DNA (dsDNA90) at 3 μg/ml using Lipofectamine 2000. 24 hours later, cell media was collected and analyzed for GLuc and SEAP activity using the Secrete-Pair Dual Luminescence Assay Kits (GeneCopoeia).
# In additional experiments, hTERT-pIFNB-Gluc cells were treated with LPS1 (1 μg/ml) or transfected with dsDNA90 (3 μg/ml) or 2′-3′ cGAMP (3 μg/ml) for 24 hours. […]
substance,measurement,value
poly I:C,GLuc expression (Gluc activity normalized by SEAP internal control),activated
